Data on ten compounds can be found in ChEMBL document CHEMBL5442219.

Common to all, as to details: Compound concentration 10 µM
Assay [1] has as its target Histamine H1 receptor (Homo sapiens) (UniProt P35367).
Assay [2] deals with D(1A) dopamine receptor (Homo sapiens) (UniProt P21728).
Assay [3] has as its target Translocator protein (Homo sapiens) (UniProt P30536).
Assay [4] has as its target T1, Muscarinic acetylcholine receptor M2 (Homo sapiens) (UniProt P08172).
T1 sequence (whole entry): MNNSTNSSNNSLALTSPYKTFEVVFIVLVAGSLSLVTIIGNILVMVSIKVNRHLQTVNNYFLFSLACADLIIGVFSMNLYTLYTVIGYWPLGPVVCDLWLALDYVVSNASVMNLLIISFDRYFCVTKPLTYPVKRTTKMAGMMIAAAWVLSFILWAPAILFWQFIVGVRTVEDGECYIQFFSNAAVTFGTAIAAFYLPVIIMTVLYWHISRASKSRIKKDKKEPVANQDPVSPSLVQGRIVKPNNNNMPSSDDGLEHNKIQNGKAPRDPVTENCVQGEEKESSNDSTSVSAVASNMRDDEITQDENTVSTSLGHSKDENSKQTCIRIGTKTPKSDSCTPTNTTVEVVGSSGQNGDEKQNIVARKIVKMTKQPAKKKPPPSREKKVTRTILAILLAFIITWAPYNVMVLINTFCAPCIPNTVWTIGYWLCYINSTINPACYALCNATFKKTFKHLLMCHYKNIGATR

For assay [5], the target named is Muscarinic acetylcholine receptor M3 (Homo sapiens) (UniProt P20309).
Muscarinic acetylcholine receptor M3 (Homo sapiens), sequence (P20309 whole entry, looked up): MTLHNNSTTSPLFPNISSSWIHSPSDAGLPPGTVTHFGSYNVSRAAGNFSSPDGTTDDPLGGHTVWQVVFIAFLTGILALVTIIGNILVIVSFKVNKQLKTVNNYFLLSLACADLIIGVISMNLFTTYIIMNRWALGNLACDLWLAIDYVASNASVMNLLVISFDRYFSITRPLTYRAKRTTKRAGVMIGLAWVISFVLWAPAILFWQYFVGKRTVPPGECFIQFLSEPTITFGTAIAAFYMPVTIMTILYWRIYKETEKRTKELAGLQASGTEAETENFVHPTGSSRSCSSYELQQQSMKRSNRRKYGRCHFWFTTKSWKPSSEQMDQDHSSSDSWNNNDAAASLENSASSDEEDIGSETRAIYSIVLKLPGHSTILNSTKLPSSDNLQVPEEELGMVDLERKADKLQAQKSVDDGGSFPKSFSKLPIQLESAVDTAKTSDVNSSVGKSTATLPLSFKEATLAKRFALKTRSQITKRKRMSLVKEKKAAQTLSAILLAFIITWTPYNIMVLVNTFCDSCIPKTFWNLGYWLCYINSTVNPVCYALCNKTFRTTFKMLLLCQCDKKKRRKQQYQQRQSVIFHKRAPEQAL
Assay [6] concerns the target Delta-type opioid receptor (Homo sapiens) (UniProt P41143).
Assay [7] addresses Histamine H2 receptor (Homo sapiens) (UniProt P25021).
Assay [8] has as its target T2, Alpha-2C adrenergic receptor (Homo sapiens) (UniProt P18825).
T2 sequence (whole entry): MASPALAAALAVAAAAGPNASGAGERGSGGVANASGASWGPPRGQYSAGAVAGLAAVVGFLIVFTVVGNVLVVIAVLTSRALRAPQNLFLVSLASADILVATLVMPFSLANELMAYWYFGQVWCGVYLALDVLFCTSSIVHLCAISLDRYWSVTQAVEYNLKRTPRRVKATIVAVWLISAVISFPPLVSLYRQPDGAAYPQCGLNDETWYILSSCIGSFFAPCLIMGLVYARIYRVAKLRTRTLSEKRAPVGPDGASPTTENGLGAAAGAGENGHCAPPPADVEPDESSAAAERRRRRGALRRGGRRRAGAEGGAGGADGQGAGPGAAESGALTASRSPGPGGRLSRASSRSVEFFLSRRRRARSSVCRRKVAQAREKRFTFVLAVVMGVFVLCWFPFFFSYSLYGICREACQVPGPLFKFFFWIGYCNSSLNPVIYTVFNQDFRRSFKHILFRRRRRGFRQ

The target of assay [9] is Mu-type opioid receptor (Homo sapiens) (UniProt P35372).
Mu-type opioid receptor (Homo sapiens), sequence (P35372 whole entry): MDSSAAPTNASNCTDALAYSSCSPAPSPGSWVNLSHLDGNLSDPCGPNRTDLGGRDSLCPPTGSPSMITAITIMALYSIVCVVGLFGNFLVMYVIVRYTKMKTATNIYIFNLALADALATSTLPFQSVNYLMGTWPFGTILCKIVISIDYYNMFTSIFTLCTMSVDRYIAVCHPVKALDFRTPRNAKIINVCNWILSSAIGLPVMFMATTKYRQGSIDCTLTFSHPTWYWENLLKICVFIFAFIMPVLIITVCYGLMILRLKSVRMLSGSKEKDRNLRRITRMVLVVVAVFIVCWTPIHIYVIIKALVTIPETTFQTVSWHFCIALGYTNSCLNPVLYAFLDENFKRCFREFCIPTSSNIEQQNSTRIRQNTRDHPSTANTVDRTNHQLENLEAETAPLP
Assay [10] concerns the target Sigma non-opioid intracellular receptor 1 (Homo sapiens) (UniProt Q99720).
In assay [11] the target is 5-hydroxytryptamine receptor 5A (Homo sapiens) (UniProt P47898).
5-hydroxytryptamine receptor 5A (Homo sapiens), sequence (P47898 whole entry): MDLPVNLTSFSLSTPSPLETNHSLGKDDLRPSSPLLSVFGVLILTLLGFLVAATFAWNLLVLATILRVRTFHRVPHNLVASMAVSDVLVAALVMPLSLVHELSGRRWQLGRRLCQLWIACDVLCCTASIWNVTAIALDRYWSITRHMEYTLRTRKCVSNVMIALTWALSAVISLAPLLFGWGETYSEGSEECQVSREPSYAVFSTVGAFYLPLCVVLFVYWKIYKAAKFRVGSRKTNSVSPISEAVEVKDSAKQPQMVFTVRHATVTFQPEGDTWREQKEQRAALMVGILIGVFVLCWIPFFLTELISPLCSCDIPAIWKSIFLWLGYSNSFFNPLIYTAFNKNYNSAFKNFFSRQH
Assay [12] addresses Sodium-dependent dopamine transporter (Homo sapiens) (UniProt Q01959).
The target of assay [13] is 5-hydroxytryptamine receptor 2B (Homo sapiens) (UniProt P41595).
5-hydroxytryptamine receptor 2B (Homo sapiens), sequence (P41595 whole entry): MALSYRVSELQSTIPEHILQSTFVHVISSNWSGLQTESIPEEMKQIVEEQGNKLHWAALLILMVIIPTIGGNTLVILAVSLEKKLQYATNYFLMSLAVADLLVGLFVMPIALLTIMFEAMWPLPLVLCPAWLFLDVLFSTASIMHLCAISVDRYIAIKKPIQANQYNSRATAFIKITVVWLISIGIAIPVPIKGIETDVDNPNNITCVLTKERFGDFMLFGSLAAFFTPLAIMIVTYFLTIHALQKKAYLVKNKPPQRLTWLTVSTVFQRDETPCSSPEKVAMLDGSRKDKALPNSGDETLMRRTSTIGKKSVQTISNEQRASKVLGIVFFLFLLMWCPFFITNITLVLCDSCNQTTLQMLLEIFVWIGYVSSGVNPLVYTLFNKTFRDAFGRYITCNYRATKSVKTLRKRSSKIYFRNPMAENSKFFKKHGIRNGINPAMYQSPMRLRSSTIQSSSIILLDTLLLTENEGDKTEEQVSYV
The target in assay [14] is Histamine H4 receptor (Homo sapiens) (UniProt Q9H3N8).
Histamine H4 receptor (Homo sapiens), sequence (Q9H3N8 whole entry): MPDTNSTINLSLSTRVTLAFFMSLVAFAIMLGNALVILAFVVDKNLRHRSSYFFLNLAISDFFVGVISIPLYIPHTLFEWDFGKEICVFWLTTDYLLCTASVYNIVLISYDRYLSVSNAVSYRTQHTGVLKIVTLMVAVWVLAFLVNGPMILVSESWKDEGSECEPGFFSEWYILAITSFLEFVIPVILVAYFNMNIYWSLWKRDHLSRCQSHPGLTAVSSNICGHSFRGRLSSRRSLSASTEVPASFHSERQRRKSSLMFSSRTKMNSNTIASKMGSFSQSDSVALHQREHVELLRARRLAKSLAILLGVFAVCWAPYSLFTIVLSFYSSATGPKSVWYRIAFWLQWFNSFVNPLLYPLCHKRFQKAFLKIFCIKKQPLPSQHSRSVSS
The target of assay [15] is T3, Alpha-2B adrenergic receptor (Homo sapiens) (UniProt P18089).
T3 sequence (whole entry): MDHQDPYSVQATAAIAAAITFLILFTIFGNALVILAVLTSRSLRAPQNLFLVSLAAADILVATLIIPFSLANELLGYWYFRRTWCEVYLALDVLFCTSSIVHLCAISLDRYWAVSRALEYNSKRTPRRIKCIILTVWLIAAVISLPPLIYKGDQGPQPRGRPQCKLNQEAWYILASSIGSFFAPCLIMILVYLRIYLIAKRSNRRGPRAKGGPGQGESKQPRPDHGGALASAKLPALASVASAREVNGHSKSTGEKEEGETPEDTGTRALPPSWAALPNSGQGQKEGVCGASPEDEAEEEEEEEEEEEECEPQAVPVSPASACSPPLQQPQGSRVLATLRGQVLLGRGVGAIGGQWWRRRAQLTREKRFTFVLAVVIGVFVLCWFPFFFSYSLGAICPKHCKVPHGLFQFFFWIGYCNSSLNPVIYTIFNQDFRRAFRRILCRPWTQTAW

Assay [16] addresses T4, Muscarinic acetylcholine receptor M1 (Homo sapiens) (UniProt P11229).
T4 sequence (whole entry): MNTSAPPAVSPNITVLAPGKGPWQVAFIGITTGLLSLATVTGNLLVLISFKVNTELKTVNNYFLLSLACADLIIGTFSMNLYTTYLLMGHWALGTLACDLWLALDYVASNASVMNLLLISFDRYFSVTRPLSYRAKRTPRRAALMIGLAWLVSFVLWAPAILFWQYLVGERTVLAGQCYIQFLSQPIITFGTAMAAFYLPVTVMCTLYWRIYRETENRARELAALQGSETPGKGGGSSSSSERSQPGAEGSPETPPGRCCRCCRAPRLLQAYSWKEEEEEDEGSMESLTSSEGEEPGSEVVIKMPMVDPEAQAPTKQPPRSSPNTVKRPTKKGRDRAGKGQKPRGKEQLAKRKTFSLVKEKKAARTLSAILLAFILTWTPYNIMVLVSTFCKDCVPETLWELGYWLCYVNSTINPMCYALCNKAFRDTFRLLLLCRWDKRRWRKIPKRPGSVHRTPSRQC

The target in assay [17] is 5-hydroxytryptamine receptor 1D (Homo sapiens) (UniProt P28221).
5-hydroxytryptamine receptor 1D (Homo sapiens), sequence (P28221 whole entry): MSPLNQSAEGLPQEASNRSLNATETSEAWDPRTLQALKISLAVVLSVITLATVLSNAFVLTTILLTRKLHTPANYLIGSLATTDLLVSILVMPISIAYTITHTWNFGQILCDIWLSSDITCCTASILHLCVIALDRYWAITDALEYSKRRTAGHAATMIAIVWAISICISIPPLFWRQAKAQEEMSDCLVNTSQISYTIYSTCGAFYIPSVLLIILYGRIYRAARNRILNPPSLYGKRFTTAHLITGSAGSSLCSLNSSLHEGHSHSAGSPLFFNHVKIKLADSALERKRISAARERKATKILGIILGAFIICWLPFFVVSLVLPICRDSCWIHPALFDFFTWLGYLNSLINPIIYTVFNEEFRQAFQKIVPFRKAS

Molecules are shown by their SMILES.

What is called inhibition is the change of the read-out against control, counted positive when it falls.

Sodium-dependent dopamine transporter (Homo sapiens), sequence (Q01959 whole entry): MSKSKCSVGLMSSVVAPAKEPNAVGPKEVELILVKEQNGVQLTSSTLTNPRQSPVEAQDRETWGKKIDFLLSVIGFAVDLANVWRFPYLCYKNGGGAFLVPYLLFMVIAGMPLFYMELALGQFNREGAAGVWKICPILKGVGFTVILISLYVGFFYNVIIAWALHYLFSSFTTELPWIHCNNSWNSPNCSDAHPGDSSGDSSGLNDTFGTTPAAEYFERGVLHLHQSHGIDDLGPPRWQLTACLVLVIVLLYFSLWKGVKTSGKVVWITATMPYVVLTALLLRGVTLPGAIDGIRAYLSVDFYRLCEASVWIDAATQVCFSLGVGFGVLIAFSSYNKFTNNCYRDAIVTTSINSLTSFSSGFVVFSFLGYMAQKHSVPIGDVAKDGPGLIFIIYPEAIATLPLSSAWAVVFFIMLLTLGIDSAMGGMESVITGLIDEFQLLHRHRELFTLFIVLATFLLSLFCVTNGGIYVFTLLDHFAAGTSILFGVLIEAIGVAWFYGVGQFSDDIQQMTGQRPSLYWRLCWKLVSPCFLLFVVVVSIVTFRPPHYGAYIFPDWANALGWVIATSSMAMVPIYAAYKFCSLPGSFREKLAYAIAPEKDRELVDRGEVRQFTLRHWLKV
Sigma non-opioid intracellular receptor 1 (Homo sapiens), sequence (Q99720 whole entry): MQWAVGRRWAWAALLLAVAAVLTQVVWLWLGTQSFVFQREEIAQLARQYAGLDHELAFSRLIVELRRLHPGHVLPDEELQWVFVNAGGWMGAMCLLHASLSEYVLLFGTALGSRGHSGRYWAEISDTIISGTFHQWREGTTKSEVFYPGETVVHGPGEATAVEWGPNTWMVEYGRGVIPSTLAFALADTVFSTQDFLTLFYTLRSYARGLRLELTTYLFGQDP
Histamine H2 receptor (Homo sapiens), sequence (P25021 whole entry): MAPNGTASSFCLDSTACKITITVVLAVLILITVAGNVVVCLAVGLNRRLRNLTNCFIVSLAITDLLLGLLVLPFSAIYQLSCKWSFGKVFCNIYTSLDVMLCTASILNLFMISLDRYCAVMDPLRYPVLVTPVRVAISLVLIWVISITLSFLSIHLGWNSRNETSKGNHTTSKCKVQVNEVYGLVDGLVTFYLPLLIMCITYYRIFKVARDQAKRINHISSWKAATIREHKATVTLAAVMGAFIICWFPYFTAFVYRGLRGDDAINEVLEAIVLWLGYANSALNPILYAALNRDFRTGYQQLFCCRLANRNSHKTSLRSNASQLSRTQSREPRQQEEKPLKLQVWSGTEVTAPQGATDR
Histamine H1 receptor (Homo sapiens), sequence (P35367 whole entry): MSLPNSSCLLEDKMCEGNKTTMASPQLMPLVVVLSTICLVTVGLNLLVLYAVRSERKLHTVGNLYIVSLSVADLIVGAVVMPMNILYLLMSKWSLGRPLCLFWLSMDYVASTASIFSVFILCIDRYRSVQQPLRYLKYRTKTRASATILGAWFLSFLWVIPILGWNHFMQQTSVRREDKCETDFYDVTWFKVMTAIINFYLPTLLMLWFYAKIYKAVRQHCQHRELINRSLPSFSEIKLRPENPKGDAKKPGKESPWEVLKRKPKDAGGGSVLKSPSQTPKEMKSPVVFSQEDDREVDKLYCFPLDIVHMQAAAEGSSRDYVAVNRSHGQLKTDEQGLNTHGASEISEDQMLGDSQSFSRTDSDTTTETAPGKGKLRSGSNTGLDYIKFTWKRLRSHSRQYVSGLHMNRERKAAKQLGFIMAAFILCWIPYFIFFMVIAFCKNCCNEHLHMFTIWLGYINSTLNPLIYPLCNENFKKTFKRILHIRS
Translocator protein (Homo sapiens), sequence (P30536 whole entry): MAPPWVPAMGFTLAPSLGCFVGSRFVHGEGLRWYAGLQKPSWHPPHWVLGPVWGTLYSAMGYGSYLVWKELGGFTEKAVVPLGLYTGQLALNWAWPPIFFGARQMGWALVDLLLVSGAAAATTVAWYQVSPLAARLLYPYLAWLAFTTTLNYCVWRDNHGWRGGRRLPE
D(1A) dopamine receptor (Homo sapiens), sequence (P21728 whole entry): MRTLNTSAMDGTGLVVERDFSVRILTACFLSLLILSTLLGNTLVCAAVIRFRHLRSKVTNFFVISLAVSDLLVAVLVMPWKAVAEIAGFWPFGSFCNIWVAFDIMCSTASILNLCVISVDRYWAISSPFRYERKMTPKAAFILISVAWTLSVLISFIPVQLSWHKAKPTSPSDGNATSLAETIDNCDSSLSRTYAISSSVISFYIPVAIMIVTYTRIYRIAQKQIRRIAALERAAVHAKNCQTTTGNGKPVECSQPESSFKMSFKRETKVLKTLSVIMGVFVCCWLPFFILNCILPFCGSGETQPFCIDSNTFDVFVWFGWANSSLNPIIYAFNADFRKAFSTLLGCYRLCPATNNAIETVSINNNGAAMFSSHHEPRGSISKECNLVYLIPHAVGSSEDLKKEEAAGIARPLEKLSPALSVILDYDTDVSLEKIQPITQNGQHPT

Take `O=C(O)CC/C=C\C[C@@H]1CO[C@H](c2ccccc2Cl)O[C@@H]1c1ccccc1O`: the inhibition was 33.4% in [1]; -0.4% in assay [2]; 8.35% in [3]; -3.76% in assay [4]; 6.61% in [5]; 46% in assay [6]. Further, the inhibition is 31.1% in [7], -7.17% in assay [8], 8.82% in assay [9] and -1.8% in assay [10].

Regarding `N#Cc1c(N)nc(SCC(N)=O)c(C#N)c1-c1ccc(OCC2CC2)cc1`, the inhibition was 22.6% in assay [1]; 7.71% in [11]; 3.03% in assay [12]; 39% in assay [3]; -6.03% in assay [4]; 12.7% in [13]. The inhibition in [14] was 14.3%; in assay [6], -1.99%; in [7] it was 41.5%; in [15], -9.96%; in assay [9], -0.63%; in assay [10], 62%. In addition, the inhibition in [16] was 1.45%.

Regarding `O=C(Nc1ccc(Cl)cc1)Nc1cccc(-c2cccc(N3CCCC3)n2)c1`, the inhibition is -4.85% in assay [1]; 6.95% in assay [2]; 18.3% in [12]; 34.9% in assay [3]; 12.7% in assay [4]; 10.6% in assay [13]. Moreover, the inhibition in assay [14] is -1.99%; in assay [7], 20%; in assay [15], 5.47%; in assay [8], -1.24%; in assay [9], -5.02%; in assay [10] it was 47.3%. The inhibition in [16] was 9.22%.

Regarding `CCCCN(CCCC)C(=O)CN1C[C@@H](c2ccc3c(c2)OCO3)[C@H](C(=O)O)[C@H]1c1ccc(OC)cc1`, the inhibition in assay [1] is 3.82%; in assay [17] it was -9.55%; in [2] it was -3.74%; in [12], 25.8%; in assay [3], 84.7%; in [13], -9.25%. The inhibition in [14] is 4.49%; in [6] it was -0.59%; in assay [7], 31%; in assay [15], 2.24%; in assay [8], -5.48%; in [9] it was 0.92%. In addition, the inhibition in assay [10] is 59.9%; in assay [16], -7.47%.

For `c1ccc(N2CCN(Cc3nc4ccccc4[nH]3)CC2)nc1`, the inhibition in assay [1] is 15.6%; in assay [11] it was 11.8%; in assay [12], 22.6%; in [3], 6.18%; in assay [4], -8.11%; in assay [13] it was 16.4%. Besides, the inhibition in assay [5] is -4.76%; in [6], -5.06%; in assay [7] it was 10.1%; in assay [8], 4.37%; in assay [9] it was 4.96%; in assay [10] it was 50.5%. Further, in [16], the inhibition is 22.3%.

For `N#Cc1cccc(C(=O)Nc2cc(-c3ccccc3)nn2-c2ccccc2)c1`, the inhibition in assay [1] is -6.18%; in assay [11] it was 1.34%; in [12] it was 2.12%; in [4], 20.9%; in assay [13] it was 2.3%; in assay [7], 33%. In addition, the inhibition in assay [15] was 0.47%; in [9] it was 6.88%; in assay [10], 8.95%; in [16] it was 3.6%.

Turning to `COc1ccc(C2(O)OC(=O)C(c3ccc4c(c3)OCO4)=C2Cc2cc(OC)c(OC)c(OC)c2)cc1` (stereo unspecified), the inhibition in assay [1] is 11.8%; in assay [17], 21.7%; in assay [11] it was 4.51%; in [2], -7.61%; in [12], 27.4%; in [3], 37%. The inhibition in assay [14] is 14.6%; in assay [5], 6.22%; in assay [7], 24.4%; in assay [15] it was -2.96%; in assay [9], -4.54%; in assay [10], 6.35%. The inhibition in assay [16] is -8.77%.

Turning to `C[C@H](NC[C@H](O)CP(=O)(O)CC1CCCCC1)c1ccc(Cl)c(Cl)c1`, the inhibition in [1] is 9.98%; in [11] it was -8.92%; in assay [12], 62.1%; in assay [4], 40.4%; in assay [13] it was 0.95%; in [14], 1.86%. For the same compound, the inhibition in [5] was -3.76%; in assay [6], -5.34%; in assay [7] it was 26%; in [8] it was -5.96%; in assay [9] it was 60.4%; in [10], 49.6%. For the same compound, the inhibition in [16] is 8.07%.

`Nc1nc2c(c(N3CCNCC3)n1)CCC1=C2[C@@H]2CCCC[C@@H]2O1`: the inhibition is 55% in assay [1]; 10% in assay [17]; -4.34% in assay [11]; -6.45% in assay [2]; -6.86% in assay [3]; 81.8% in assay [13]. The inhibition is 89.8% in [14]; 15.3% in assay [5]; 43.4% in assay [7]; 31.9% in assay [15]; 30.6% in assay [8]; 26.7% in [9]. The inhibition in assay [10] was 86.4%; in assay [16], 8.9%.

Take `O=C(Cc1ccccc1)Nc1nc2ccc(Cl)cc2c2nc(-c3ccco3)nn12`: the inhibition in assay [1] is 29.1%; in assay [11] it was 15.2%; in assay [12] it was 27.1%; in assay [3], 18.7%; in [4], -4.43%; in assay [13] it was -0.19%. Moreover, the inhibition in [14] was 6.75%; in assay [7], 13.8%; in assay [15], 4.67%; in assay [8], 9.95%; in assay [9], 17.8%; in assay [10], -4.19%. Besides, the inhibition in assay [16] is 5.61%.
